According to patent US7267946B2, “Mitochondrial DNA damage as a predictor of coronary atherosclerotic heart disease” (Research Development Foundation, priority 1999, dated 2007):

Legend:
[1] = test system: mitochondrial DNA; experiment: QPCR DNA damage assay, mtDNA, HUVEC; type: cell-based, human
Protocol: (§1) Human umbilical endothelial vein cells (HUVEC) and human aortic smooth muscle cells (HASMC) were maintained a t 37° C. and 5% CO2/95% air in Dulbecco's Modified Eagles Media (HASMC; Cell Gro) or M199 (HUVEC:Cell Gro) supplemented with 10% (HASMC) or 20% (HUVEC) heat inactivated fetal calf serum (Gibco/BRL), HEPES buffer (10 mM), glutamine, penicillin, and streptomycin. Flasks were routinely split every 3-4 days and disassociated for experiments using trypsin-EDTA (Gibco/BRL). Cells were treated with the various reactive oxygen species (controls mock treated with serum-free media) at 70-80% confluence, between passages 5-7.
Xanthine oxidase/lumazine and spermine NONOate were used as low dose O2^− and nitric oxide donors, respectively. SIN-1 (3-morpholinosydnonimine, hydrochloride, Molecular Probes) was used to generate higher, equimolar levels of nitric oxide and O2^−. Monolayer cultures in 60 mm plates (70%-80% confluent) were exposed to specific reactive oxygen species concentrations for dose response, and time-course experiments in serum-free, phenol red free minimum essential media (MEM) at 37° C. Control monolayers were mock-treated with serum-free and phenol red-free MEM alone. After treatment, cells were washed once with PBS and harvested immediately.
(§2) The QPCR assay measures the average degree of DNA damage per strand for the two template strands in the genomic segment of interest. […] Damage is assessed in the mitochondrial genome by amplifying a 16.2 kb product from the mitochondrial DNA template, and the nuclear genome by a 17.7 kb product from the β-globin gene cluster. […] Because differences in QPCR amplifications may at times be related to template copy number differences or simply due to the DNA quality unrelated to in vivo or in vitro mediated damage, a quantitative amplification of a small region is performed as a quality control (32). […]

[2] = test system: mitochondrial DNA; experiment: QPCR DNA damage assay, mtDNA, HASMC; type: cell-based, human; conditions: 0.2 mM, time course 0-60 minutes
Protocol: as §1
(§3) Xanthine oxidase/lumazine and spermine NONOate were used as low dose O2^− and nitric oxide donors, respectively. […]
as §2

[3] = test system: mitochondrial protein synthesis; experiment: Mitochondrial protein synthesis (35S-methionine incorporation), HASMC; type: cell-based, human
Protocol: (§4) Human umbilical endothelial vein cells (HUVEC) and human aortic smooth muscle cells (HASMC) were maintained a t 37° C. and 5% CO2/95% air in Dulbecco's Modified Eagles Media (HASMC; Cell Gro) or M199 (HUVEC:Cell Gro) supplemented with 10% (HASMC) or 20% (HUVEC) heat inactivated fetal calf serum (Gibco/BRL), HEPES buffer (10 mM), glutamine, penicillin, and streptomycin. Flasks were routinely split every 3-4 days and disassociated for experiments using trypsin-EDTA (Gibco/BRL). Cells were treated with the various reactive oxygen species (controls mock treated with serum-free media) at 70-80% confluence, between passages 5-7. […] SIN-1 (3-morpholinosydnonimine, hydrochloride, Molecular Probes) was used to generate higher, equimolar levels of nitric oxide and O2^−. Monolayer cultures in 60 mm plates (70%-80% confluent) were exposed to specific reactive oxygen species concentrations for dose response, and time-course experiments in serum-free, phenol red free minimum essential media (MEM) at 37° C. Control monolayers were mock-treated with serum-free and phenol red-free MEM alone. After treatment, cells were washed once with PBS and harvested immediately. Methods for mitochondrial protein synthesis analyses have been described (37). […] Cells were trypsinized, and washed with PBS. […] Gels were dried onto Whatman filter paper, and exposed to Kodak XAR film at −80° C. The percent labeling of the translation products was determined by densitometry (Molecular Dynamics Densitometer SI) of all bands for untreated and treated samples. The sum of labeling of the bands for each sample was used to calculate the relative levels of incorporation. In regard to the quantitation of mitochondrial protein levels, any technique used to quantify mitochondrial protein synthesis levels would be applicable. Statistical analysis was performed using the independent Student's t test.

[4] = test system: nDNA (β-globin gene cluster); experiment: QPCR DNA damage assay, nDNA, HUVEC; type: cell-based, human; conditions: 0.2 mM, time course 0-60 minutes
Protocol: as §1, §3, §2

[5] = test system: mitochondrial protein synthesis; experiment: Mitochondrial protein synthesis (35S-methionine incorporation), HUVEC; type: cell-based, human
Protocol: as §4

[6] = test system: 16S rRNA, ND2 and Cyt b transcripts; experiment: Northern transcript analysis, HUVEC; type: cell-based, human; conditions: 0.5 mM, 60 min
Protocol: (§5) Human umbilical endothelial vein cells (HUVEC) and human aortic smooth muscle cells (HASMC) were maintained a t 37° C. and 5% CO2/95% air in Dulbecco's Modified Eagles Media (HASMC; Cell Gro) or M199 (HUVEC:Cell Gro) supplemented with 10% (HASMC) or 20% (HUVEC) heat inactivated fetal calf serum (Gibco/BRL), HEPES buffer (10 mM), glutamine, penicillin, and streptomycin. Flasks were routinely split every 3-4 days and disassociated for experiments using trypsin-EDTA (Gibco/BRL). Cells were treated with the various reactive oxygen species (controls mock treated with serum-free media) at 70-80% confluence, between passages 5-7. […] SIN-1 (3-morpholinosydnonimine, hydrochloride, Molecular Probes) was used to generate higher, equimolar levels of nitric oxide and O2^-. Monolayer cultures in 60 mm plates (70%-80% confluent) were exposed to specific reactive oxygen species concentrations for dose response, and time-course experiments in serum-free, phenol red free minimum essential media (MEM) at 37° C. Control monolayers were mock-treated with serum-free and phenol red-free MEM alone. […] Autoradiographs were scanned densitometrically (Molecular Dynamics Densitometer SI) and quantitated using IMAGEQUANT (Molecular Dynamics). In regard to the quantitation of mitochondrial transcript levels, any technique used to quantify mtRNA transcript levels would be applicable. […]

[7] = test system: complex II, succinate dehydrogenase; experiment: MTT reduction (mitochondrial respiration), HASMC; type: cell-based, human; conditions: 1 hour
Protocol: (§6) Reduction of MTT at complex II was used to assess mitochondrial respiration (38-42). Cells were seeded in 96 well plates at a density of 8,000 cells/well and incubated at 37° C. […] Absorbance values were converted to MTT reduction using a standard curve generated with known numbers of viable cells. MTT reduction for treated samples was then normalized to non-treated control samples and is reported as a fraction of control. Total ATP levels were determined using an ATP determination kit (Molecular Probes, A-6608) and a MicroLumat Plus LB (EG&G Berthold) micro-injector luminometer. Briefly, this assay is based upon luciferin-luciferase bioluminescence (˜560 nm) in the presence of ATP. This assay is extremely sensitive; most luminometers can detect as little as 0.1 picomole of pre-existing ATP, or ATP as it is being formed in kinetic systems. Statistical analysis was performed using the independent Student's t test.

[8] = test system: mitochondrial DNA encoded OXPHOS gene transcripts; β-actin; experiment: Northern transcript analysis, HUVEC and HASMC pooled statements; type: cell-based, human; conditions: peroxynitrite treatments
Protocol: as §5

[9] = test system: 16S rRNA, ND2 and Cyt b transcripts; experiment: Northern transcript analysis, HASMC; type: cell-based, human; conditions: 0.5 mM, 60 min
Protocol: as §5

[10] = test system: mitochondrial protein synthesis; experiment: Mitochondrial protein synthesis, HUVEC and HASMC pooled statements; type: cell-based; conditions: Homo sapiens; 0.1 mM, cell line not stated
Protocol: Human umbilical endothelial vein cells (HUVEC) and human aortic smooth muscle cells (HASMC) were maintained a t 37° C. and 5% CO2/95% air in Dulbecco's Modified Eagles Media (HASMC; Cell Gro) or M199 (HUVEC:Cell Gro) supplemented with 10% (HASMC) or 20% (HUVEC) heat inactivated fetal calf serum (Gibco/BRL), HEPES buffer (10 mM), glutamine, penicillin, and streptomycin. Flasks were routinely split every 3-4 days and disassociated for experiments using trypsin-EDTA (Gibco/BRL). Cells were treated with the various reactive oxygen species (controls mock treated with serum-free media) at 70-80% confluence, between passages 5-7. […] SIN-1 (3-morpholinosydnonimine, hydrochloride, Molecular Probes) was used to generate higher, equimolar levels of nitric oxide and O2^−. Monolayer cultures in 60 mm plates (70%-80% confluent) were exposed to specific reactive oxygen species concentrations for dose response, and time-course experiments in serum-free, phenol red free minimum essential media (MEM) at 37° C. […] The percent labeling of the translation products was determined by densitometry (Molecular Dynamics Densitometer SI) of all bands for untreated and treated samples. […] In regard to the quantitation of mitochondrial protein levels, any technique used to quantify mitochondrial protein synthesis levels would be applicable. […]

[11] = test system: complex II, succinate dehydrogenase; experiment: MTT reduction (mitochondrial respiration), HUVEC; type: cell-based, human; conditions: 1 hour
Protocol: as §6

[12] = test system: HASMC; experiment: Total ATP determination, HASMC; type: cell-based, human; conditions: 1 hour
Protocol: as §6

[13] = test system: HUVEC; experiment: Total ATP determination, HUVEC; type: cell-based, human; conditions: 1 hour
Protocol: as §6

[14] = biological target: T1, recombinant human MnSOD (Homo sapiens, UniProt P04179); conditions: cited from earlier work
T1 sequence (P04179 25-222): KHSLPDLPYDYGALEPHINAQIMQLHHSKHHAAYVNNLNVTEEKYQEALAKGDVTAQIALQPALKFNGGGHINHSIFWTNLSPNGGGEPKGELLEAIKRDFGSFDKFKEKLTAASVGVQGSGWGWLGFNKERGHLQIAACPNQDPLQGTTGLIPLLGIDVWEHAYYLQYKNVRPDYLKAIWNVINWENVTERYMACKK

[15] = Homo sapiens, 0.5 mM, read-out: protein labeling, % of control

For `NCCCNCCCCN(CCCN)/[N+]([O-])=N/O` [spermine NONOate], the “DNA damage (in words)” value ([1]; sustained nitric oxide generation 0.5 mM/ml/min, cell line not named in the clause (HUVEC context)) was “did no t cause DNA damage”.
With catalase the “effect of pretreatment on O2^- induced mitochondrial DNA damage” value ([1]; HUVEC, O2^- 2 mM/ml/minute) was “prevented”.
With `OO` [H2O2, hydrogen peroxide] the “time at which significant mitochondrial DNA damage occurred” value [2] was at most 15 min, the “35S-Methionine Incorporation Compared to Control” value ([3]; 0.2 mM) was 67% and the “treatment time required before significant nDNA (β-globin) damage” value [4] was 60 min. The “time at which significant mitochondrial DNA damage occurred” value ([1]; HUVEC, 0.2 mM, time course 0-60 minutes) was at most 10 min and the “35S-Methionine Incorporation Compared to Control” value ([5]; 0.2 mM) was 77%.
In the case of `O=NOO` [peroxynitrite], the “decrease of 16S rRNA levels” value [6] is reported as 26%, the “35S-Methionine Incorporation Compared to Control” value [3] is reported as 30% and the “35S-Methionine Incorporation Compared to Control” value ([3]; 0.1 mM) is reported as 88%. The “decrease in 35S-methionine incorporation” value ([3]; 0.1 mM) was 12%, the activity at 500 µM [3, 15] was 30% and the “complex II reduction of MTT (mitochondrial respiration), in words” value (“complex II reduction of MTT” below) ([7]; 0.1 mM) was “did not result in a significant decrease”. For the same compound, the “complex II reduction of MTT” value ([7]; 0.5 mM, P=0.008) was “significant decline”, the “transcript levels of the nuclear β-actin gene” value [8] was “unaffected” and the “decrease in ND2 and Cyt b transcript levels” value [9] was 55%. For the same compound, the “reduction of 16S rRNA levels” value [9] was 14%, the inhibition at 100 µM [10] was 10% and the “complex II reduction of MTT” value ([11]; 0.1 mM) was “did not result in a significant decrease”. The “complex II reduction of MTT” value ([11]; 0.5 mM, P=0.02) was “significant decline”, the “total ATP (in words)” value ([12]; 0.1 mM) was “did not result in a significant reduction” and the “total ATP (in words)” value ([12]; 0.5 mM, P=0.04) was “significant decreases”. For the same compound, the “total ATP (in words)” value ([13]; 0.1 mM) was “did not result in a significant reduction”, the “total ATP (in words)” value ([13]; 0.5 mM, P=0.02) was “significant decreases” and the “inhibition of MnSOD enzymatic activity” value [14] was “complete inhibition”. For the same compound, the “35S-Methionine Incorporation Compared to Control” value [5] was 45%, the “loss of mitochondrial protein synthesis compared to untreated cells” value ([5]; 0.5 mM) was 55% and the activity at 500 µM [5, 15] was 45%.
